Assay results from patent publication US20200068890A1 (Person to Whom the Inventor is Obligated to Assign, priority 2017, published 2020).

test system: T1, A. thaliana DHDPS; assay: DHDPS-DHDPR coupled assay, dose response inhibitor assay; type: biochemical, Arabidopsis thaliana
T1 construct: AtDHDPS|10|0.00008; no borders, domain or tags given
Description: DHDPS enzyme activity was determined using the coupled assay in a Cary 4000 UV/Vis spectrophotometer at 340 nm in 1 cm acrylic cuvettes. A master mix was prepared for each reaction as per Table 1. Reaction mixtures containing enzymes, pyruvate, buffer and NADPH were incubated at 30° C. for 12 mins before the addition of ASA to initiate the reaction. The oxidation of NADPH to NADP^+ was then monitored at 340 nm at 30° C. as a function of time. The initial rate (ΔA340·min^−1) was calculated from the slope of the linear portion of the A340 versus time profile. All experiments were carried out in triplicate. The enzyme kinetic parameters, including KM values, were determined using the Michaelis-Menten equation (Equation 1). Unless otherwise stated, all kinetic data were fitted using the built-in equations in GraphPad Prism.
To determine/C50 values for the inhibitors, A. thaliana DHDPS enzyme activity was measured using the coupled assay (detailed above) in the presence of increasing concentrations of inhibitor. The initial rate was then plotted as a function of the log 10 of the inhibitor concentration and the/C50 determined according to Equation 2.

IC50	SMILES
80.1 µM	O=C(O)CN1C(=O)S/C(=C\c2ccccc2)C1=O [Compound 2, (Z)-2-(5-Benzylidene-2,4-dioxothiazolidin-3-yl)acetic Acid]
110 µM	COc1cccc(/C=C2\SC(=O)N(CC(=O)O)C2=O)c1 [Compound 4, (Z)-2-(5-(3-Methoxybenzylidene)-2,4-dioxothiazolidin-3-yl)acetic Acid]
137 µM	O=C(O)CN1C(=O)S/C(=C\c2ccccc2Cl)C1=O [Compound 6, (Z)-2-(5-(2-Chlorobenzylidene)-2,4-dioxothiazolidin-3-yl)acetic Acid]
121 µM	O=C(O)CN1C(=O)S/C(=C\c2cccc(Cl)c2)C1=O [Compound 7, (Z)-2-(5-(3-Chlorobenzylidene)-2,4-dioxothiazolidin-3-yl)acetic Acid]
84.3 µM	O=C(O)CN1C(=O)S/C(=C\c2ccc(Cl)cc2)C1=O [Compound 8, (Z)-2-(5-(4-Chlorobenzylidene)-2,4-dioxothiazolidin-3-yl)acetic Acid]
74 µM	O=C(O)CN1C(=O)S/C(=C\c2ccc(Br)cc2)C1=O [Compound 9, (Z)-2-(5-(4-Bromobenzylidene)-2,4-dioxothiazolidin-3-yl)acetic Acid]
80.1 µM	Cc1ccc(/C=C2\SC(=O)N(CC(=O)O)C2=O)cc1 [Compound 10, (Z)-2-(5-(4-Methylbenzylidene)-2,4-dioxothiazolidin-3-yl)acetic Acid]
153 µM	Nc1ccc(/C=C2\SC(=O)N(CC(=O)O)C2=O)cc1 [Compound 11, (Z)-2-(5-(4-Aminobenzylidene)-2,4-dioxothiazolidin-3-yl)acetic Acid]
103 µM	O=C(O)CN1C(=O)S/C(=C\c2ccc(O)cc2)C1=O [Compound 12, (Z)-2-(5-(4-Hydroxybenzylidene)-2,4-dioxothiazolidin-3-yl)acetic Acid]
316 µM	O=C(O)CN1C(=O)S/C(=C\c2ccc(O)c(Cl)c2)C1=O [Compound 13, (Z)-2-(5-(3-Chloro-4-hydroxybenzylidene)-2,4-dioxothiazolidin-3-yl)acetic Acid]
79.7 µM	O=C(O)CN1C(=O)S/C(=C\c2ccccc2O)C1=O [Compound 14, (Z)-2-(5-(2-Hydroxybenzylidene)-2,4-dioxothiazolidin-3-yl)acetic Acid]
152 µM	O=C(O)CN1C(=O)S/C(=C\c2cc([N+](=O)[O-])ccc2O)C1=O [Compound 15, (Z)-2-(5-(2-Hydroxy-5-nitrobenzylidene)-2,4-dioxothiazolidin-3-yl)acetic Acid]
127 µM	COc1cccc(/C=C2\SC(=O)N(CC(=O)O)C2=O)c1O [Compound 16, (Z)-2-(5-(2-Hydroxy-3-methoxybenzylidene)-2,4-dioxothiazolidin-3-yl)acetic Acid]
173 µM	COc1ccc(/C=C2\SC(=O)N(CC(=O)O)C2=O)c(OC)c1 [Compound 17, (Z)-2-(5-(2,4-Dimethoxybenzylidene)-2,4-dioxothiazolidin-3-yl)acetic Acid]
125 µM	O=C1NC(=O)/C(=C/c2ccccc2O)S1 [Compound 19, (Z)-5-(2-Hydroxybenzylidene)thiazolidine-2,4-dione]
68.4 µM	CC(=O)Nc1ccc(/C=C2\SC(=O)N(CC(=O)O)C2=O)cc1 [Compound 20, (Z)-2-(5-(4-Acetamidobenzylidene)-2,4-dioxothiazolidin-3-yl)acetic Acid]
162 µM	O=C(O)CN1C(=O)S/C(=C\c2ccc(O)cc2O)C1=O [Compound 21, 2-(5-(2,4-Dihydroxybenzylidene)-2,4-dioxothiazolidin-3-yl)acetic Acid]
108 µM	COc1cccc(/C=C2\SC(=O)N(CC(=O)O)C2=O)c1OC [Compound 22, 2-(5-(2,3-Dimethoxybenzylidene)-2,4-dioxothiazolidin-3-yl) acetic Acid]
116 µM	COc1ccc(/C=C2\SC(=O)N(CC(=O)O)C2=O)cc1OC [Compound 23, 2-(5-(3,4-Dimethoxybenzylidene)-2,4-dioxothiazolidin-3-yl)acetic Acid]
